The target of this experiment is T1, human chemokine receptor 2 isoform B (Homo sapiens, UniProt P41597).
T1 construct: host or cells: CHOK1-CCR2B-A5 cells (CHO-K1)
T1 sequence (P41597 1-360 isoform P41597-2): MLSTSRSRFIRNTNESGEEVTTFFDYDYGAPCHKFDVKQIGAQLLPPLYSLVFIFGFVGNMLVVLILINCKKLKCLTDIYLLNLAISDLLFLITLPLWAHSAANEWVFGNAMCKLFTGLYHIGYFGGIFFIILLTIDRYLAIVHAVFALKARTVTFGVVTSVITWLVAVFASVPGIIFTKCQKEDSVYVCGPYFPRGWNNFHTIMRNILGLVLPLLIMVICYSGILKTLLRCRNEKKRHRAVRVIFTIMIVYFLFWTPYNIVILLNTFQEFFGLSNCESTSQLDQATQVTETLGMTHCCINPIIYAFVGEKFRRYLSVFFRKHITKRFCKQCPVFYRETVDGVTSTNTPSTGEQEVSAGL
In words: Calcium mobilization assay (FLIPR, antagonist activity against MCP-1). Format: cell-based. To be noted: Ca mobilisation assay, CHOK1-CCR2B-A5 cells, inhibition of calcium increase induced by 20 nM MCP-1. As for the experimental part:
Calcium Mobilization Assay
CHOK1-CCR2B-A5 cells (from Euroscreen) stably overexpressing the human chemokine receptor 2 isoform B were cultured in Nutrient Hams F12 medium supplemented with 5% FBS, 100 U/ml penicillin, 100 μg/ml streptomycin, 400 μg/ml G418 and 5 μg/ml puromycin.
For the assay cells were grown overnight in 384-well black clear flat bottom polystyrene plates (Costar) at 37° C. at 5% CO2. After washing with DMEM, 20 mM Hepes, 2.5 mM probenecid, 0.1% BSA (DMEM assay buffer) cells were loaded with 4 μM Fluo-4 in the same DMEM assay buffer for 2 hours at 30° C. Excess dye was removed and cells were washed with DMEM assay buffer. 384-well compound plates were prepared with DMEM assay buffer/0.5% DMSO with or without various concentrations of test compounds. Usually compounds were tested for agonist and antagonist activity.
Test compounds were added to the assay plate and agonist activity was monitored as fluorescence for 80 seconds with a FLIPR (488 nm excitation; 510-570 nm emission; Molecular Devices). After 20-30 min. of incubation at 30° C., 20 nM MCP-1 (R&D; Roche) was added and fluorescence was monitored again for 80 seconds. Increases in intracellular calcium are reported as maximum fluorescence after agonist exposure minus basal fluorescence before exposure. Antagonist activity is indicated as inhibitor concentration required for 50% inhibition of specific calcium increases.
On the technique in general: A change in cytosolic calcium serves as a functional read-out for many receptors and channels.

The term IC50 denotes the concentration needed to halve the response being measured. For `C[C@H]1C(=O)N(CCC(=O)N2CC[C@](C)(CO)[C@H](O)C2)CCN1C(=O)Nc1ccc(Cl)c(Cl)c1` (mixture of isomers) [Example 21, (S)-4-[3-((3SR,4RS)-3-Hydroxy-4-hydroxymethyl-4-methyl-piperidin-1-yl)-3-oxo-propyl]-2-methyl-3-oxo-piperazine-1-carboxylic acid (3,4-dichloro-phenyl)-amide], the IC50 was determined as 844 nM.

As to `C[C@H]1C(=O)N(CCC(=O)N2CC[C@H](F)[C@@H](O)C2)CCN1C(=O)Nc1ccc(Cl)c(Cl)c1` (mixture of isomers) [Example 23, (S)-4-[3-((3SR,4SR)-4-Fluoro-3-hydroxy-piperidin-1-yl)-3-oxo-propyl]-2-methyl-3-oxo-piperazine-1-carboxylic acid (3,4-dichloro-phenyl)-amide], the IC50 was found to be 3860 nM.

For `C[C@H]1C(=O)N(CCCC(=O)N2CCCC(O)C2)CCN1C(=O)Nc1cccc(Cl)c1` (mixture of isomers) [Example 112, (S)-4-[4-((RS)-3-Hydroxy-piperidin-1-yl)-4-oxo-butyl]-2-methyl-3-oxo-piperazine-1-carboxylic acid (3-chloro-phenyl)-amide], the IC50 came to 3200 nM.

Regarding `C[C@H]1C(=O)N(CCCC(=O)N2CC[C@H](F)[C@@H](O)C2)CCN1C(=O)Nc1cccc(Cl)c1` (mixture of isomers) [Example 115, (S)-4-[4-((3SR,4SR)-4-Fluoro-3-hydroxy-piperidin-1-yl)-4-oxo-butyl]-2-methyl-3-oxo-piperazine-1-carboxylic acid (3-chloro-phenyl)-amide], the IC50 is 1360 nM.

Regarding `C[C@H]1C(=O)N(CCCC(=O)N2CCC3(CC3)[C@H](O)C2)C(C(=O)O)CN1C(=O)Nc1ccc(Cl)c(Cl)c1` (mixture of isomers) [Example 120, (2RS,5S)-4-(3,4-Dichloro-phenylcarbamoyl)-1-[4-((S)-4-hydroxy-6-aza-spiro[2.5]oct-6-yl)-4-oxo-butyl]-5-methyl-6-oxo-piperazine-2-carboxylic acid], the IC50 stood at 386 nM.

Turning to `O=C(/C=C/c1ccc(Cl)c(Cl)c1)N1CCC(=O)N(CCC(=O)N2CC[C@H](O)[C@H](O)C2)CC1` (racemic) [Example 2, 1-[(E)-3-(3,4-Dichloro-phenyl)-acryloyl]-4-[3-((3RS,4SR)-3,4-dihydroxy-piperidin-1-yl)-3-oxo-propyl]-[1,4]diazepan-5-one], the IC50 came out at 1970 nM.

As for `CN(C)C(=O)C(CCO)N1CCN(C(=O)/C=C/c2ccc(Cl)c(Cl)c2)CCC1=O` (racemic) [Example 3, (rac)-2-{4-[(E)-3-(3,4-Dichloro-phenyl)-acryloyl]-7-oxo-[1,4]diazepan-1-yl}-4-hydroxy-N,N-dimethyl-butyramide], the half-maximal inhibitory concentration (IC50) came to 563 nM.

Regarding `O=C(/C=C/c1ccc(Cl)c(Cl)c1)N1CCC(=O)N(C(CCO)C(=O)N2CCCC2)CC1` (racemic) [Example 5, rac-(1-[(E)-3-(3,4-Dichloro-phenyl)-acryloyl]-4-[3-hydroxy-1-(pyrrolidine-1-carbonyl)-propyl]-[1,4]diazepan-5-one)], the IC50 was determined as 583 nM.

Turning to `O=C(/C=C/c1ccc(Cl)c(Cl)c1)N1CCC(=O)N(C(CO)CC(=O)N2CCCCC2)CC1` (racemic) [Example 6, rac-(1-[(E)-3-(3,4-Dichloro-phenyl)-acryloyl]-4-(1-hydroxymethyl-3-oxo-3-piperidin-1-yl-propyl)-[1,4]diazepan-5-one)], the IC50 was determined as 2020 nM.

With `COC(=O)C(CC(=O)N(C)C)N1CCN(C(=O)/C=C/c2ccc(Cl)c(Cl)c2)CCC1=O` (racemic) [Example 8, rac-(2-{4-[(E)-3-(3,4-Dichloro-phenyl)-acryloyl]-7-oxo-[1,4]diazepan-1-yl}-N,N-dimethyl-succinamic acid methyl ester)], the IC50 is 863 nM.

`COC(=O)C(CC(=O)N(C)C)N1CCN(C(=O)/C=C/c2cccc(Cl)c2)CCC1=O` (racemic) [Example 12, rac-(2-{4-[(E)-3-(3-Chloro-phenyl)-acryloyl]-7-oxo-[1,4]diazepan-1-yl}-N,N-dimethyl-succinamic acid methyl ester)]: the IC50 was 1940 nM.

With `O=C(/C=C/c1ccc(Cl)c(Cl)c1)N1CCC(=O)N(CCC(=O)N2CCCCC2CO)CC1` (racemic) [Example 67, (rac)-1-[(E)-3-(3,4-Dichloro-phenyl)-acryloyl]-4-[3-(2-hydroxymethyl-piperidin-1-yl)-3-oxo-propyl]-[1,4]diazepan-5-one], the IC50 was 1600 nM.

On to `O=C(/C=C/c1ccc(Cl)c(Cl)c1)N1CCC(=O)N(CCC(=O)N2CCCC(CO)C2)CC1` (racemic) [Example 68, (rac)-1-[(E)-3-(3,4-Dichloro-phenyl)-acryloyl]-4-[3-(3-hydroxymethyl-piperidin-1-yl)-3-oxo-propyl]-[1,4]diazepan-5-one], for which the IC50 amounted to 758 nM.

`O=C(/C=C/c1ccc(Cl)c(Cl)c1)N1CCC(=O)N(CCC(=O)N2CCCC(O)C2)CC1` (racemic) [Example 70, (rac)-1-[(E)-3-(3,4-Dichloro-phenyl)-acryloyl]-4-[3-(3-hydroxy-piperidin-1-yl)-3-oxo-propyl]-[1,4]diazepan-5-one]: the IC50 came to 1300 nM.

For `CC1CCN(C(=O)CCN2CCN(C(=O)/C=C/c3ccc(Cl)c(Cl)c3)CCC2=O)CC1O` (racemic) [Example 71, (rac)-1-[(E)-3-(3,4-Dichloro-phenyl)-acryloyl]-4-[3-(3-hydroxy-4-methyl-piperidin-1-yl)-3-oxo-propyl]-[1,4]diazepan-5-one], the IC50 is 681 nM.

`CC1(O)CCCN(C(=O)CCN2CCN(C(=O)/C=C/c3ccc(Cl)c(Cl)c3)CCC2=O)C1` (racemic) [Example 74, (rac)-1-[(E)-3-(3,4-Dichloro-phenyl)-acryloyl]-4-[3-(3-hydroxy-3-methyl-piperidin-1-yl)-3-oxo-propyl]-[1,4]diazepan-5-one]: the IC50 is 1540 nM.

`CC1(CO)CCCCN1C(=O)CCN1CCN(C(=O)/C=C/c2ccc(Cl)c(Cl)c2)CCC1=O` (racemic) [Example 75, (rac)-1-[(E)-3-(3,4-Dichloro-phenyl)-acryloyl]-4-[3-(2-hydroxymethyl-2-methyl-piperidin-1-yl)-3-oxo-propyl]-[1,4]diazepan-5-one]: the IC50 amounted to 969 nM.

On to `CC1(CO)CCCN1C(=O)CCN1CCN(C(=O)/C=C/c2ccc(Cl)c(Cl)c2)CCC1=O` (racemic) [Example 81, (rac)-1-[(E)-3-(3,4-Dichloro-phenyl)-acryloyl]-4-[3-(2-hydroxymethyl-2-methyl-pyrrolidin-1-yl)-3-oxo-propyl]-[1,4]diazepan-5-one], for which the IC50 was found to be 1680 nM.

For `CC1(O)CCCN(C(=O)CN2CCN(C(=O)/C=C/c3ccc(Cl)c(Cl)c3)CCC2=O)C1` (racemic) [Example 100, (rac)-1-[(E)-3-(3,4-Dichloro-phenyl)-acryloyl]-4-[2-(3-hydroxy-3-methyl-piperidin-1-yl)-2-oxo-ethyl]-[1,4]diazepan-5-one], the IC50 came out at 411 nM.

In the case of `C[C@H]1C(=O)N(CCCC(=O)N2CC[C@](C)(CO)[C@H](O)C2)CCN1C(=O)Nc1cccc(Cl)c1` (racemic) [Example 114, (S)-4-[4-((3SR,4RS)-3-Hydroxy-4-hydroxymethyl-4-methyl-piperidin-1-yl)-4-oxo-bulyl]-2-methyl-3-oxo-piperazine-1-carboxylic acid (3-chloro-phenyl)-amide], the IC50 amounted to 31.5 nM.
